In experiment [1] the test system is endothelial cells of the microcirculatory system. Kind of experiment: endothelial cell migration, Boyden chambers. The format is cell-based. To be noted: compared with other NO donors. The text has this: The pharmacological activity of the compounds of the invention has been evaluated by their relaxation induction effect in vascular preparations (rabbit aorta rings) precontracted with noradrenaline (Amerini et al., J. Cardiovasc. Pharmacol., 28: 82-88, […]). The endothelio-protective and pro-angiogenetic effects of the compounds have also been evaluated in a study on the proliferation and migration of endothelial cells of the microcirculatory system (M. Ziche et al., J. Clin. Invest. 94: 2036-2044, 1994).
The endothelio-protective and pro-angiogenetic effect of the compounds was also evaluated by measuring the growth promotion and migration effect on endothelial cells of the microcirculatory system compared with other NO donors. Cell migration was evaluated using Boyden chambers, and proliferation as the total number of cells after 48 hours of exposure to the substances under study (M. Ziche et al., J. Clin. Invest. 94: 2036-2044, 1994).

The test system of experiment [2] is rabbit aorta precontracted with noradrenaline. Kind of experiment: relaxation of rabbit aorta precontracted with noradrenaline.

On to `NCCCNCCCCN(CCCN)/[N+]([O-])=N/O` [SpermineNONOate, spermineNONOate], for which the “effect on endothelial cell migration, result in words” value in experiment [1] was “little active and does not give the maximum effect”. For the same compound, the “vascular relaxation, result in words” value in experiment [2] is given as “much less powerful than piperazineNONOate complexes”.

The values are drawn from patent US6897218B2, “Nitric oxide donors based on metallic centers” (Consiglio Nazionale Delle Ricerche, priority 2001, dated 2005).
